Where two headings read alike, the source gives them in different places.
Tested on: HIV-1 (NL4-3 strain)
Assay: Assay for inhibition of HIV replication (VIKING; MT4-gag-GFP reporter cell line)
Assay type: cell-based
Procedure: This assay is a kinetic assay that employs a reporter cell line (MT4-gag-GFP) to quantify the number of new cells infected in each round of replication.
MT4-GFP cells (250,000 cells/ml) were bulk-infected with HIV-1 (NL4-3 strain) at low multiplicity of infection (MOI) in RPMI cell culture medium+10% FBS for 24 hours. Cells were then washed once in RPMI cell culture medium+10% FBS and resuspended in RPMI cell culture medium+0% or 10% or 100% normal human serum (NHS). Test compounds were serial-diluted in DMSO on an ECHO® liquid handler. The infected MT4-GFP cells were added to a 384-well poly-D-lysine coated black plate with clear bottom in which the diluted test compounds were placed. The cells were seeded at 8,000 cells per well and the final DMSO concentration was 0.4%. The infected cells (Green GFP cells) were quantified at both 24 and 48 hours post incubation using Acumen eX3. Viral reproductive ratio (R0) was determined using the number of infected cells at 48 hours divided by the number of infected cells at 24 hours. Percent viral growth inhibition was calculated by [1−(R−Rtripledrug)/(RDMSO−Rtripledrug)]*100. Compound potency IP or IC50 was determined by a 4-parameter dose response curve analysis. In vitro potency in the cell-based assay in the abscence of normal human serum (NHS) and the presence of 100% NHS.

[1] = Human immunodeficiency virus 1, NL43, MT4-GFP cells infected with HIV-1 NL4-3, 0% normal human serum (NHS), read-out: VIKING IP50 (nM) with 0% NHS
[2] = Human immunodeficiency virus 1, NL43, MT4-GFP cells infected with HIV-1 NL4-3, 100% normal human serum (NHS), read-out: VIKING IP50 (nM) with 100% NHS
[3] = MT4-GFP cells infected with HIV-1 NL4-3, 0% normal human serum (NHS), read-out: VIKING IP50 (nM) with 0% NHS
[4] = MT4-GFP cells infected with HIV-1 NL4-3, 100% normal human serum (NHS), read-out: VIKING IP50 (nM) with 100% NHS

Row | Structure (SMILES) | IC50 [1] [nM] | IC50 [2] [nM] | IC50 [3] [nM] | IC50 [4] [nM]
1 | C[C@@H]1CCOC2C3CCc4c(C(=O)NCc5ccc(F)cc5F)c(=O)c(O)c(n43)C(=O)N21 (stereo partly drawn) [Compound 60] | 0.934 | 27.6 |  | 
2 | O=C1c2c(O)c(=O)c(-c3cnn(Cc4ccc(F)cc4F)c3)c3n2C(CC3)C2OCCN12 (stereo not drawn) [Compound 46] | 34.5 | 222 |  | 
3 | CC1C2C3CCc4c(C(=O)NCc5cccc(Cl)c5F)c(=O)c(O)c(n43)C(=O)N2C[C@@H]1C (stereo partly drawn) [Compound 102] |  |  | 1.05 | 579
4 | C[C@H]1COC2C3CCc4c(C(=O)NCc5cccc(Cl)c5F)c(=O)c(O)c(n43)C(=O)N21 (stereo partly drawn) [Compound 30] | 0.536 | 838 |  | 
5 | COC1CC2C3OCCN3C(=O)c3c(O)c(=O)c(C(=O)NCc4ccc(F)cc4F)c1n32 (stereo not drawn) [Compound 72] |  |  | 0.754 | 8000
6 | C[C@H]1CN(S(C)(=O)=O)C2C3CCc4c(C(=O)NCc5cccc(Cl)c5F)c(=O)c(O)c(n43)C(=O)N21 (stereo partly drawn) [Compound 116] |  |  | 4.57 | 195

From US11358711B2, “Tetracyclic heterocycle compounds useful as HIV integrase inhibitors” (Merck Sharp & Dohme Corp., priority 2019, dated 2022)
